The structures appear in SMILES notation. Structures can show the parent of a compound that is named as a salt.

Data set [1] deals with A2780 (ovarian carcinoma). The data set is described as follows: SRB cytotoxicity assay, A2780. It counts as cell-based, human. The note with it: for EC50: Homo sapiens, A2780, 72 h, SRB assay, 72 h of treatment; for Selectivity index SI A2780: SI = EC50 (NIH 3T3)/EC50 (A2780). The text has this:
(§1) Due to cytotoxicity evaluation, the prepared UA-DOTA conjugates were screened in rhodamine B assays employing a series of human tumor cell lines and non-malignant mouse fibroblasts (NIH 3T3).
(§2) The cell lines used are human cancer cell lines: A2780 (ovarian carcinoma), HT29 (colon adenocarcinoma), MCF-7 (breast adenocarcinoma), A375 (melanoma), FaDu (pharynx squamous cell carcinoma) and non-malignant mouse fibroblasts NIH 3T3; all cell lines were obtained from the Department of Oncology (Martin-Luther-University Halle-Wittenberg). Cultures were maintained as monolayers in RPMI 1640 medium with L-glutamine (Capricorn Scientific GmbH, Ebsdorfergrund, Germany) supplemented with 10% heat inactivated fetal bovine serum (Sigma-Aldrich Chemie GmbH, Steinheim, Germany) and penicillin/streptomycin (Capricorn Scientific GmbH, Ebsdorfergrund, Germany) at 37 °C in a humidified atmosphere with 5% CO2.
(§3) The cytotoxicity of the compounds was evaluated using the sulforhodamine-B (Kiton-Red S, ABCR) micro culture colorimetric assay. Cells were seeded into 96-well plates on day 0 at appropriate cell densities to prevent confluence of the cells during the period of experiment. After 24 h, the cells were treated with six different concentrations (1, 3, 7, 12, 20, and 30 µM) minimum. The final concentration of DMSO/DMF never exceeded 0.5%, which was non-toxic to the cells. After a 72-h treatment, the supernatant medium from the 96-well plates was discarded, the cells were fixed with 10% trichloroacetic acid (TCA) and allowed to rest at 4 °C. After 24 h fixation, the cells were washed in a strip washer and dyed with SRB solution (100 µL, 0.4%, in 1% acetic acid) for about 20 min. After dying, the plates were washed four times with 1% acetic acid to remove the excess of the dye and allowed to air-dry overnight. Tris base solution (200 µL, 10 mM) was added to each well and absorbance was measured at λ = 570 nm using a 96 well plate reader (Tecan Spectra, Crailsheim, Germany). The EC50 values were averaged from three independent experiments performed each in triplicate calculated from semi logarithmic dose response curves applying a non-linear 4P Hills-slope equation (GraphPad Prism5; variables top and bottom were set to 100 and 0, respectively).
On the technique in general: The SRB assay estimates cell density from bound dye.

In data set [2] the test system is non-malignant mouse fibroblasts NIH 3T3. The data set is described as follows: SRB cytotoxicity assay, NIH 3T3. It counts as cell-based. The note with it: NIH3T3, 72 h of treatment.
Excerpt: as §1, §2, §3

The test system of another data set is A375 (melanoma). The data set is described as follows: SRB cytotoxicity assay, A375. It counts as cell-based, human. The note with it: for EC50: Homo sapiens, A-375, SRB assay, 72 h of treatment; for Selectivity index SI A375: SI = EC50 (NIH 3T3)/EC50 (A375).
Excerpt: as §1, §2, §3

Another data set concerns human tumor cell lines. The data set is described as follows: SRB cytotoxicity assay, statements over the whole cell line panel. It counts as cell-based. The note with it: summary over all tumor cell lines.
Excerpt: as §1, §2, §3

The subject of data set [3] is HT29 (colon adenocarcinoma). The data set is described as follows: SRB cytotoxicity assay, HT29. The note with it: for EC50: Homo sapiens, HT-29, SRB assay, 72 h of treatment; for Selectivity index SI HT29: SI = EC50 (NIH 3T3)/EC50 (HT29). It counts as cell-based, human.
Excerpt: as §1, §2, §3

For data set [4], the system named is MCF-7 (breast adenocarcinoma). The data set is described as follows: SRB cytotoxicity assay, MCF-7. The note with it: for EC50: Homo sapiens, MCF7, SRB assay, 72 h of treatment; for Selectivity index SI MCF-7: SI = EC50 (NIH 3T3)/EC50 (MCF-7). It counts as cell-based, human.
Excerpt: as §1, §2, §3

The test system of data set [5] is FaDu (pharynx squamous cell carcinoma). The data set is described as follows: SRB cytotoxicity assay, FaDu. It counts as cell-based, human. As to conditions: for EC50: Homo sapiens, FaDu, SRB assay, 72 h of treatment; for Selectivity index SI FaDu: SI = EC50 (NIH 3T3)/EC50 (FaDu).
Excerpt: as §1, §2, §3

For the compound `CC(=O)O[C@H]1CC[C@]2(C)[C@H]3CC=C4[C@@H]5[C@@H](C)[C@H](C)CC[C@]5(C(=O)NCCN5CCN(C(=O)CN6CCN(CC(=O)O)CCN(CC(=O)O)CCN(CC(=O)O)CC6)CC5)CC[C@@]4(C)[C@]3(C)CC[C@H]2C1(C)C` [compound 15, 2,2’,2’’-[10-[2-[4-[2-(3β-Acetyloxy-urs-12-en-28-oylamino)ethyl]piperazin-1-yl]-2-oxoethyl]-1,4,7,10-tetraazacyclododecane-1,4,7-triyl]triacetic acid], the melting point (as a rule, the temperature, or range, at which the solid turns liquid) was 206 to 210 °C (dec.). For the same compound, the EC50 – broadly, the midpoint of the concentration-response curve – in data set [1] was above 60 µM. Also, the EC50 in data set [2] is above 60 µM. Also, the EC50 in the data set with A375 (melanoma) was above 60 µM. Besides, the EC50 in the data set with human tumor cell lines is above 60 µM. Further, the EC50 in data set [3] was above 60 µM. The concentration giving a half-maximal response (EC50) in data set [4] is above 60 µM. The compound further registered an EC50 in data set [5] above 60 µM.

`C[C@H]1[C@H](C)CC[C@]2(C(=O)NCCNC(=O)CN3CCN(CC(=O)OC(C)(C)C)CCN(CC(=O)OC(C)(C)C)CCN(CC(=O)OC(C)(C)C)CC3)CC[C@]3(C)C(=CC[C@@H]4[C@@]5(C)CC[C@H](O)C(C)(C)[C@@H]5CC[C@]43C)[C@H]12` [compound 29, Tri-tert-butyl 2,2’,2’’-[10-[2-[2-(3β-hydroxy-urs-12-en-28-oylamino)ethyl]amino-2-oxoethyl]-1,4,7,10-tetraazacyclododecane-1,4,7-triyl]triacetate]: in data set [1], the EC50 is 1.6 ± 0.5 µM and the “Selectivity index SI A2780” value was 1.44. Moreover, in data set [2], the midpoint of the response, the EC50, lay at 2.3 ± 0.7 µM. In the data set with A375 (melanoma), the EC50 is 2 ± 0.3 µM and the “Selectivity index SI A375” value came to 1.15. In data set [3], the EC50 worked out at 1.7 ± 0.4 µM and the “Selectivity index SI HT29” value worked out at 1.35. Besides, in data set [5], the EC50 worked out at 2.9 ± 0.4 µM and the “Selectivity index SI FaDu” value worked out at 0.79.

Turning to `CC(=O)O[C@H]1CC[C@]2(C)[C@H]3CC=C4[C@@H]5[C@@H](C)[C@H](C)CC[C@]5(C(=O)NCCN5CCN(C(=O)CN6CCN(CC(=O)OCc7ccccc7)CCN(CC(=O)OCc7ccccc7)CCN(CC(=O)OCc7ccccc7)CC6)CC5)CC[C@@]4(C)[C@]3(C)CC[C@H]2C1(C)C` [compound 13, Tribenzyl 2,2’,2’’-[10-[2-[4-[2-(3β-acetyloxy-urs-12-en-28-oylamino)ethyl]piperazin-1-yl]-2-oxoethyl]-1,4,7,10-tetraazacyclododecane-1,4,7-triyl]triacetate], the melting point lay within 142 to 146 °C. Moreover, in data set [1], the 50% effective concentration (EC50) was found to be 2.1 ± 0.4 µM and the “Selectivity index SI A2780” value worked out at 1.71. Moreover, the EC50 in data set [2] was determined as 3.6 ± 0.5 µM. The compound also registered an EC50 in the data set with human tumor cell lines below 6 µM. Moreover, in data set [3], the midpoint of the response, the EC50, lay at 4 ± 0.4 µM and the “Selectivity index SI HT29” value came to 0.90. For the same compound, in data set [4], the EC50 amounted to 3.3 ± 0.2 µM and the “Selectivity index SI MCF-7” value came out at 1.09. Moreover, in data set [5], a half-maximal effect (EC50) was put at 6 ± 0.1 µM and the “Selectivity index SI FaDu” value came out at 0.60.

As to `COc1cccc2c1C(=O)c1c(O)c3c(c(O)c1C2=O)C[C@@](O)(C(=O)CO)C[C@@H]3O[C@H]1C[C@H](N)[C@H](O)[C@H](C)O1` [DRC, doxorubicin hydrochloride, reference compound], the concentration giving a half-maximal response (EC50) in data set [1] stood at 0.01 ± 0.01 µM; in data set [2], 0.06 ± 0.03 µM; in data set [3] it was 0.9 ± 0.2 µM; in data set [4] it was 1.1 ± 0.3 µM. In addition, the “Selectivity index SI A2780” value in data set [1] is on record as 6.00. For the same compound, the “Selectivity index SI HT29” value in data set [3] was 0.07. Moreover, the “Selectivity index SI MCF-7” value in data set [4] amounted to 0.05.

As to `CC(C)(C)OC(=O)CN1CCNCCN(CC(=O)OC(C)(C)C)CCN(CC(=O)OC(C)(C)C)CC1` [compound 6, Tri-tert-butyl 2,2′,2’’-(1,4,7,10-tetraazacyclododecane-1,4,7-triyl)triacetate], the melting point lay in the range of 180 to 182 °C. For the same compound, in data set [1], a half-maximal response (EC50) required 10.5 ± 3 µM and the “Selectivity index SI A2780” value turned out to be 1.65. In data set [2], a half-maximal response (EC50) required 17.3 ± 0.1 µM. In addition, in the data set on A375 (melanoma), the EC50 is 12.4 ± 2.7 µM and the “Selectivity index SI A375” value is 1.40. This compound also came in with an EC50 in the data set with human tumor cell lines of 10 to 14 µM. In data set [3], the EC50 is 8.7 ± 2.7 µM and the “Selectivity index SI HT29” value is on record as 1.99. In data set [4], a half-maximal response (EC50) required 11.3 ± 2.3 µM and the “Selectivity index SI MCF-7” value is 1.53. For the same compound, in data set [5], the response was half-maximal at 9.5 ± 0.9 µM (EC50) and the “Selectivity index SI FaDu” value came out at 1.82.

For `C[C@H]1[C@H](C)CC[C@]2(C(=O)O)CC[C@]3(C)C(=CC[C@@H]4[C@@]5(C)CC[C@H](O)C(C)(C)[C@@H]5CC[C@]43C)[C@H]12` [UA, Ursolic acid], in data set [1], a half-maximal effect (EC50) was put at 11.7 ± 0.6 µM and the “Selectivity index SI A2780” value is listed as 1.12. In data set [2], this compound gave an EC50 of 13.1 ± 1.1 µM. Moreover, in data set [3], the EC50 came to 10.6 ± 0.7 µM and the “Selectivity index SI HT29” value was 1.24. Besides, in data set [4], the concentration for a half-maximal effect (EC50) is 12.7 ± 0.1 µM and the “Selectivity index SI MCF-7” value was 1.03.

`O=C(CN1CCNCCN(CC(=O)OCc2ccccc2)CCN(CC(=O)OCc2ccccc2)CC1)OCc1ccccc1` [compound 7, Tribenzyl 2,2’,2’’-(1,4,7,10-tetraazacyclododecane-1,4,7-triyl)triacetate]: the EC50 was 3.8 ± 0.3 µM in data set [1]; 4.5 ± 0.3 µM in data set [2]; 4.7 ± 0.3 µM in the data set with A375 (melanoma); below 5 µM with human tumor cell lines; 2 ± 0.2 µM in data set [3]; 4.1 ± 0.5 µM in data set [4]. In data set [5], the EC50 came out at 3.9 ± 0.7 µM. In addition, in data set [1], the “Selectivity index SI A2780” value was 1.18. In the data set on A375 (melanoma), the “Selectivity index SI A375” value amounted to 0.96. Also, the “Selectivity index SI HT29” value in data set [3] is listed as 2.25. The “Selectivity index SI MCF-7” value in data set [4] worked out at 1.10. Further, the “Selectivity index SI FaDu” value in data set [5] is reported as 1.15.

The record behind these values is article PMC6630699, “Synthesis and Cytotoxicity Evaluation of DOTA-Conjugates of Ursolic Acid” (Molecules, 2019).
